The values that follow come from patent publication EP1478365B1 (Nowak, Götz, priority 2002, dated 2003).

For this assay, the system named is Dottersackgefäßsystem von Hühnerembryonen. In words: animal or person. Particulars: for Hemmung: time point not stated. From the text:
Cyproheptadin (Peritol®) wird aufgrund seiner zentralen Wirkung als Appetitsstimulanz in der Klinik verwendet. Als Nebenwirkungen waren bisher im wesentlichen sedierende Effekte bekannt. […] Zur Wirkungsanalyse wurde die Gefäßentwicklung der Dottersackmembran von befruchteten Hühnereiern benutzt. Das Modell hat den Vorteil, daß die Entwicklung dieses primären Gefäßsystems der Hühnerembryonen Kapillaren erzeugt, die eine große Ähnlichkeit mit Tumorgefäßen haben. Diese Kapillaren sind stärker fenestriert und sind anatomisch den Tumorvaskularitäten ähnlich.
Bei 30 ex ovo bebrüteten Hühnereiern werden jeweils auf zwei Bereiche des Dottersackgefäßsystems 1,5 µl eines 3%igen Traganth-Gels, in dem Cyproheptadin in der zu untersuchenden Konzentration eingebracht wurde, appliziert. Bei weiterer Bebrütung in einem Sterilinkubator bei 37°C und 85% Luftfeuchtigkeit entwickeln sich die pre- bzw. postkapillären Gefäßstrukturen der Dottersackvaskularitäten, die 9 h und 24 h post applicationem semiquantitativ bewertet werden.
Ebenfalls nach 9 h und 24 h werden die Applikationsstellen bewertet.

For the compound `CN1CCC(=C2c3ccccc3C=Cc3ccccc32)CC1` [Cyproheptadin], the “Wirkung 24 h nach Applikation” value (24 h values compared with 9 h values) is given as “in leicht abgeschwächter Form noch vorhanden”. Under “Gallus gallus, read-out: maximale Wirkungsstärke”, the Emax amounted to 76%. The “Hemmung der Dottersackangiogenese, wirksame Konzentrationen” value (effective concentration range in words) is given as “in nanomolaren Konzentrationen”. The Hemmung is, setting by setting: (single substance at its IC 25 concentration) 20,3%; (single substance at its IC 50 concentration) 37,9%; (single substance at its IC 75 concentration) 65,8%; (single substance at its IC 100 concentration) 76,6%. The “Angiogenese bei sehr hohen Konzentrationen” value (very high concentrations) is on record as “totale Verhinderung einer Angiogenese”.
